Here are results for 11 compounds from patent US20230017532A1 (Hoffmann-La Roche Inc., priority 2018, published 2023).

Structures can show the parent of a compound that is named as a salt.

The test system of the test is Acinetobacter baumannii ATCC17961. Put plainly: Antimicrobial susceptibility testing: 90% growth inhibitory concentration (IC90) determination, Iso-Sensitest broth, OD 600 nm. The test is classed as cell-based. The note with it: 90% growth inhibitory concentration, Acinetobacter baumannii ATCC17961, Iso-Sensitest broth, OD 600 nm over 16 h; read-out: ATCC 17961 IC90. In short, it runs like this:
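Twofold serial dilutions (e.g. 50–0.097 μM final) incubated with ~5×10^5 CFU/ml in Iso-Sensitest broth at 35±2 °C. OD600 read every 20 min for 16 h; IC90 derived from growth inhibition during logarithmic phase.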

Take `COc1ccc(-c2cnc3c(Nc4cc(C)c(C(=O)NCCOCCOCCN)c(F)c4)nccn23)c(F)c1F` [Example 208, N-(2-(2-(2-aminoethoxy)ethoxy)ethyl)-4-((3-(2,3-difluoro-4-methoxyphenyl)imidazo[1,2-a]pyrazin-8-yl)amino)-2-fluoro-6-methyl-benzamide dihydrochloride]: the IC90 was determined as 0.23 µM. With `CCc1cc(Nc2nccn3c(-c4cccc(F)c4F)cnc23)ccc1C(=O)NCCOCCN` [Example 209, N-[2-(2-amino-ethoxy)ethyl]-4-[[3-(2,3-difluoro-phenyl)imidazo [1,2-a]pyrazin-8-yl]amino]-2-ethyl-benzamide], the IC90 came out at 0.33 µM.

As for `CCc1cc(Nc2nccn3c(-c4cc(F)ccc4F)cnc23)ccc1C(=O)NCCOCCN` [Example 210, N-[2-(2-amino-ethoxy)ethyl]-4-[[3-(2,5-difluorophenyl)imidazo[1,2-a]pyrazin-8-yl]amino]-2-ethyl-benzamide], the 90% effect concentration (IC90) turned out to be 0.55 µM. Turning to `CCc1cc(Nc2nccn3c(-c4cc(F)cc(OC)c4)cnc23)ccc1C(=O)NCCOCCN` [Example 211, N-[2-(2-amino-ethoxy)ethyl]-2-ethyl-4-[[3-(3-fluoro-5-methoxy-phenyl)imidazo [1,2-a]pyrazin-8-yl]amino] benzamide], the IC90 stood at 0.94 µM. In the case of `COc1ccc(-c2cnc3c(Nc4cc(C)c(C(=O)NCCOCCN=C(N(C)C)N(C)C)c(F)c4)nccn23)c(F)c1F` [Example 212, N-(2-(2-((bis(dimethyl-amino)methylene)amino)ethoxy)ethyl)-4-((3-(2,3-difluoro-4-methoxyphenyl)imidazo[1,2-a]pyrazin-8-yl)amino)-2-fluoro-6-methylbenzamide formate], the IC90 worked out at 0.4 µM. To `CCc1cc(Nc2nccn3c(-c4cc(C)cc(F)c4)cnc23)ccc1C(=O)NCCOCCN` [Example 213, N-[2-(2-amino-ethoxy)ethyl]-2-ethyl-4-[[3-(3-fluoro-5-methyl-phenyl)imidazo [1,2-a]pyrazin-8-yl]amino] benzamide] belongs 0.81 µM. Turning to `CCc1cc(Nc2nccn3c(-c4c(F)cccc4F)cnc23)ccc1C(=O)NCCOCCN` [Example 214, N-[2-(2-amino-ethoxy)ethyl]-4-[[3-(2,6-difluorophenyl)imidazo[1,2-a]pyrazin-8-yl]amino]-2-ethyl-benzamide], the IC90 was 0.95 µM. Turning to `COc1ccc(-c2cnc3c(Nc4cc(C)c(C(=O)NCCOCCNC(=O)[C@@H]5C[C@@H](O)CN5)c(F)c4)nccn23)c(F)c1F` [Example 215, (2S,4R)-N-(2-(2-(4-((3-(2,3-difluoro-4-methoxyphenyl)imidazo[1,2-a]pyrazin-8-yl)amino)-2-fluoro-6-methyl-benzamido)ethoxy)ethyl)-4-hydroxy-pyrrolidine-2-carboxamide], the IC90 came out at 0.23 µM. For `CCc1cc(Nc2nccn3c(-c4ccc(OC)c(F)c4F)cnc23)ccc1C(=O)NCCNCCNCC(=O)O` [Example 216, (2-((2-(4-((3-(2,3-difluoro-4-methoxyphenyl)imidazo[1,2-a]pyrazin-8-yl)amino)-2-ethyl-benzamido)ethyl)amino)ethyl) glycine], the IC90 stood at 0.49 µM. With `COc1ccc(-c2cnc3c(Nc4cc(F)c(C(=O)NCCOCCN)c(Br)c4)nccn23)c(F)c1F` [Example 217, N-(2-(2-amino-ethoxy)ethyl)-2-bromo-4-((3-(2,3-difluoro-4-methoxyphenyl)imidazo[1,2-a]pyrazin-8-yl)amino)-6-fluorobenzamide dihydrochloride] the figure was 0.1 µM.

For the compound `CCc1cc(Nc2nccn3c(-c4ccc(OC)c(F)c4F)cnc23)ccc1C(=O)N[C@@H](C)CNCCO` [Example 218, 4-[[3-(2,3-difluoro-4-methoxy-phenyl)imidazo [1,2-a]pyrazin-8-yl]amino]-2-ethyl-N-[(1S)-2-(2-hydroxyethyl-amino)-1-methyl-ethyl]benzamide], the IC90 was determined as 0.54 µM.

A word on the IC90: it is the concentration needed for an effect of 90%.
